The values that follow come from patent US9005644B2, “Pesticidal compositions” (BASF Corporation, priority 2008, dated 2015).

“And” between values parts separate entries of the source, which are not always exact repeats. Equal entries are not always repeated.

For one assay, the system named is German cockroaches. The experiment in a line: Topical toxicity evaluation on adult German cockroaches, mortality (dead/moribund) at 24 hours. Format: in vivo, Blattella germanica (German cockroach). How it is done:
Toxicity evaluations were performed on 7-14 day old adult male and female German cockroaches (SCJ Strain, S.C. Johnson & Son, Racine, Wis.). Approximately 12 cockroaches were transferred to individual 100×20 mm polystyrene Petri dishes and anesthetized with a 15-25 second exposure to carbon dioxide. The inside edge of each Petri dish was lightly coated with mineral oil plus petroleum jelly in a 1:3 (wt/wt) ratio to minimize escape. Anesthetized cockroaches were positioned with their ventral side up, and a 1 μl drop of the diluted test composition was applied to the area between the meso- and metathoracic legs using a Rainin L-10, 10 μl capacity pipette (Rainin Instrument, LLC, Oakland, Calif.). Five replications of 12 male cockroaches were done for each test composition. Separate tests were done using female cockroaches. Results were evaluated at 24 hours following treatment. Cockroaches were scored as either alive (dorsal side up, active movement when abdomen prodded with dissecting probe) or moribund/dead (dorsal side up and no movement when abdomen prodded or ventral side up and insect unable to right itself).
The compositions comprising alcohol and/or mineral oil are described in Table 13.

Another assay concerns cockroaches. The experiment in a line: LD50 and LD10 determination for cockroaches (dose-response mortality, probit analysis). Format: in vivo. The settings on record: for LD10 mg/insect / LD50 mg/insect: cockroaches, probit analysis. How it is done:
In this example, various mineral oils and alcohols were tested to determine, for cockroaches, the LD50 and LD10 for each.
PD23 and PD28 mineral oils were obtained from Sonneborn LLC, Mahwah, N.J. The physical properties of these oils are shown in Table 11. Each mineral oil was tested to determine the LD50 and LD10 (Table 12).
The tested alcohols were obtained from Sigma-Aldrich Corp., St. Louis, Mo. Each alcohol was tested to determine the LD50 and LD10 (Table 12).

The mark [1] stands for this setting: Table 14, composite data, amounts in label.
[2] abbreviates: Table 18, Exxsol D95 mineral oil, amounts in label.
Setting [3] is: Table 17, composite data, amounts in label.
Setting [4] is: Table 17, composite data, amounts in label, listed as nitromethane (75-52-5) (0.80 mg).
Setting [5] is: Table 3, male cockroaches, remainder acetone, per replicate.

For `CCCCO` [Composition 1-butanol, 1-butanol], the “# dead at 24 h” value in the assay on German cockroaches (Table 13, per replicate (# treated 10-16), amounts in label, listed as 1-butanol (0.8 mg)) was 0 (2×) and 1; in the assay with German cockroaches (setting [1]) it was 1. The “Proportion dead at 24 h” value in the assay with German cockroaches (Table 13, per replicate, amounts in label, listed as 1-butanol (0.8 mg)) is 0.000 (2×) and 0.100; in the assay on German cockroaches (setting [1]) it was 0.029. For the same compound, the LD10 mg/insect in the assay on cockroaches stood at 0.877 mg/insect. In the assay on cockroaches, this compound had an LD50 mg/insect of 1.018 mg/insect.

For the compound `CCCO` [Composition 1-propanol, 1-propanol], the “# dead at 24 h” value in the assay on German cockroaches (Table 13, per replicate (# treated 10-16), amounts in label, listed as 1-propanol (0.45 mg)) is 1 and 0 (2×); in the assay with German cockroaches (setting [1]), 1; in the assay on German cockroaches (setting [2]), 1. The “Proportion dead at 24 h” value in the assay with German cockroaches (Table 13, per replicate, amounts in label, listed as 1-propanol (0.45 mg)) was 0.083 and 0.000 (2×); with German cockroaches (setting [1]), 0.028; in the assay on German cockroaches (setting [2]), 0.028. The “synergy with EXXSOL D95” value with German cockroaches (alone and in combination with Exxsol D95 mineral oil) is reported as “significant synergy”. The compound also displayed an LD10 in the assay on cockroaches (as detailed in Example 9) of 0.472 mg/insect. In the assay with cockroaches, this compound displayed an LD10 mg/insect of 0.472 mg/insect. The LD50 mg/insect in the assay on cockroaches is on record as 0.557 mg/insect.

For `CCC(C)O` (stereo not drawn) [Composition 2-butanol, 2-butanol], the “# dead at 24 h” value in the assay with German cockroaches (Table 13, per replicate (# treated 10-16), amounts in label, listed as 2-butanol (0.8 mg)) is 0 (2×) and 1. In the assay on German cockroaches (Table 13, per replicate, amounts in label, listed as 2-butanol (0.8 mg)), the “Proportion dead at 24 h” value is 0.000 (2×) and 0.083. In the assay with German cockroaches (setting [1]), the “# dead at 24 h” value is 1 and the “Proportion dead at 24 h” value is 0.026. In the assay on cockroaches, this compound yielded an LD10 mg/insect of 0.881 mg/insect and an LD50 mg/insect of 1.188 mg/insect.

For `CN1CCCC1=O` [n-methyl pyrrolidone], the “Proportion dead at 24 h” value in the assay on German cockroaches (setting [3]) amounted to 0.100; in the assay on German cockroaches (Table 17, composite data, amounts in label, listed as n-methyl pyrrolidone (872-50-4) (0.10 mg)), 0.500. For the same compound, the “# dead at 24 h” value in the assay on German cockroaches (topical, compound 0.05 mg (PD23 0.40 mg in combinations), 24 h, count of # treated) is 1; in the assay on German cockroaches (topical, compound 0.10 mg (PD23 0.40 mg in combinations), 24 h, count of # treated), 5.

As to `C[N+](=O)[O-]` [nitromethane (75-52-5) (0.70 mg), nitromethane], in the assay with German cockroaches (setting [3]), the “# dead at 24 h” value is reported as 0. In addition, in the assay on German cockroaches (setting [4]), the “# dead at 24 h” value was determined as 5 and the “Proportion dead at 24 h” value is recorded as 0.179. For the same compound, the “increase (difference) in mortality when combined with PD23 mineral oil” value in the assay on German cockroaches (compared to the other alcohols/compounds tested) was “greatest increase in mortality”.

For `CC(C)(C)O` [tertiary butyl alcohol], the “# dead at 24 h” value with German cockroaches (Table 13, per replicate (# treated 10-16), amounts in label, listed as t-butyl alcohol (0.5 mg)) was 0 (3×) and 2; with German cockroaches (setting [1]), 2. The “Proportion dead at 24 h” value in the assay on German cockroaches (Table 13, per replicate, amounts in label, listed as t-butyl alcohol (0.5 mg)) is reported as 0.000; with German cockroaches (setting [1]), 0.045.

On to Diisopropyl biphenyl, for which, in the assay with German cockroaches (setting [3]), the “# dead at 24 h” value came out at 0 and the “Proportion dead at 24 h” value is on record as 0.000.

With Hexanes, in the assay with German cockroaches (topical, compound 0.80 mg (PD23 0.40 mg in combinations), 24 h), the “Proportion dead at 24 hr” value is recorded as 0.100. Further, the “# dead at 24 h” value in the assay with German cockroaches (topical, compound 0.80 mg (PD23 0.40 mg in combinations), 24 h, count of # treated) is 1.

On to Hexylene glycol [Hexylene glycol (20%)], for which, in the assay with German cockroaches (setting [5]), the “Arcsine square root % dead” value is 0, the Proportion dead was 0 and the “Square root % dead” value worked out at 0. In addition, the “# dead” value with German cockroaches (Table 3, male cockroaches, remainder acetone, per replicate (# tested 12-14)) is 1 and 0 (2×) and 3.
